{"source": "patent US6599527B1", "about": "“Preparation of pharmaceutical compositions” (Phares Pharmaceutical Research N.V., priority 1997, dated 2003)", "origin": "cited, not measured here", "settings": "in vivo", "data": [{"substance": "phosphatidylcholine [phosphatidylcholine (PC)]", "values": [{"measurement": "fraction entering the GI tract that is absorbed", "value": "Over 90%"}]}]}
